US20170362283A1, “NISIN-BASED COMPOUNDS AND USE THEREOF IN THE TREATMENT OF BACTERIAL INFECTIONS” (UNIVERSITEIT UTRECHT HOLDING B.V., priority 2015, published 2017)

How the values were obtained:
M. luteus = type: cell-based; details: duplicate experiments
Outline: (§1)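 Broth dilution MIC following CLSI M07-A9; overnight TSB cultures diluted to 0.5×10^6 CFU in TSB and incubated with compound at 37° C for 16 hours. MIC read by visual inspection of growth.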

VRE 155 = type: cell-based; details: duplicate experiments
Outline: as §1

MRSA USA300 = type: cell-based, Staphylococcus aureus; details: duplicate experiments
Outline: as §1

MRSA WKZ2 = type: cell-based, Staphylococcus aureus; details: duplicate experiments
Outline: as §1

E. faecium E980 = assay: BioScreen growth assay for E. faecium E980; type: cell-based; details: 5 μM
Description: A BioScreen C instrument (Oy Growth Curves AB, Helsinki, Finland) was used to monitor effects of the compounds (6), (10), and (12) and the effect of compound (24) with R1-group (e), or Comparative compound B (nisin) on E. faecium growth (each compound administered at a fixed concentration 5 μM). E. faecium strains were inoculated at an initial OD660 of 0.05 into 300 μl TSB containing 1% DMSO and 1% glucose or into the same medium containing the antibiotic compounds at a final concentration of 5 μM. […]
The E. faecium strains used in these experiments are E. faecium E745 (vancomycin-ampicillin resistant hospital outbreak strain), E. faecium E980 (vancomycin-ampicillin susceptible human commensal isolate), E. Faecium E1133 (vancomycin-ampicillin resistant hospital outbreak strain), and E. faecium E1162 (vancomycin-susceptible ampicillin-resistant clinical isolate). The BioScreen growth assays for each strain was determined for the compounds (6), (10), (12) and also for compound (24) with R1-group (e) as well as nisin (Comparative compound B) and compared to non-treated strains, the results being shown in the Tables 9 to 12 below.

For nisin [Compound B], the “MIC values M. luteus” value (M. luteus) was 0.02 to 0.03 µg/mL, the “MIC values VRE 155” value (VRE 155) was 5 µg/mL and the “MIC values MRSA USA300” value (MRSA USA300) was 10 µg/mL. The “MIC values MRSA WKZ2” value (MRSA WKZ2) was 10 µg/mL, the OD600 (E. faecium E980; time 0 h) was 0.016 and the OD600 (E. faecium E980; time 4 h) was 0.01167. It also gave an OD600 (E. faecium E980; time 8 h) of 0.011, an OD600 (E. faecium E980; time 12 h) of 0.011 and an OD600 (E. faecium E980; time 16 h) of 0.01067.
